“Also recorded” adds a separate entry of the source.
Legend:
[1] = test system: primary human hepatocytes; assay: Cytotoxicity in primary human hepatocytes; format: cell-based; settings: tested up to 100 μmol/L
[2] = test system: SW48 isogenic PIK3CA-mutant and parental WT cells; assay: Potency comparison in SW48 isogenic mutant versus WT cells; format: cell-based, human; settings: for potency differential in mutant versus WT isogenic SW48 cells: viability EC50, mutant versus WT
[3] = test system: HER2-negative PIK3CA-mutant breast tumor lines (n = 10); assay: ATP cell viability, HER2-negative PIK3CA-mutant breast lines; format: cell-based; settings: 5 days
[4] = test system: PIK3CA E545K-mutant MCF7 cells; assay: CyQuant growth rate inhibition; format: cell-based; settings: all combination treatments (± E2, ± 0.15 μmol/L palbociclib)
[5] = test system: pAKT in HER2-amplified PIK3CA-mutant cells (HCC1954, HCC202, MDA-MB-453); assay: pAKT Western blot time course; format: cell-based; settings: 0.5 μmol/L GDC-0077 or 1 μmol/L BYL719
[6] = test system: p110a in PIK3CA-mutant breast cancer lines; settings: treatment for 24 hours
[7] = letrozole ± palbociclib portion of the study; cited from earlier work
[8] = target: membrane-associated p110a in p110a-mutant HCC1954 xenograft model (Homo sapiens, UniProt P42336, H1047R); assay: Membrane-associated p110a in HCC1954 xenograft tumors; format: in vivo, mouse
Sequence of membrane-associated p110a in p110a-mutant HCC1954 xenograft model (P42336 whole entry H1047R): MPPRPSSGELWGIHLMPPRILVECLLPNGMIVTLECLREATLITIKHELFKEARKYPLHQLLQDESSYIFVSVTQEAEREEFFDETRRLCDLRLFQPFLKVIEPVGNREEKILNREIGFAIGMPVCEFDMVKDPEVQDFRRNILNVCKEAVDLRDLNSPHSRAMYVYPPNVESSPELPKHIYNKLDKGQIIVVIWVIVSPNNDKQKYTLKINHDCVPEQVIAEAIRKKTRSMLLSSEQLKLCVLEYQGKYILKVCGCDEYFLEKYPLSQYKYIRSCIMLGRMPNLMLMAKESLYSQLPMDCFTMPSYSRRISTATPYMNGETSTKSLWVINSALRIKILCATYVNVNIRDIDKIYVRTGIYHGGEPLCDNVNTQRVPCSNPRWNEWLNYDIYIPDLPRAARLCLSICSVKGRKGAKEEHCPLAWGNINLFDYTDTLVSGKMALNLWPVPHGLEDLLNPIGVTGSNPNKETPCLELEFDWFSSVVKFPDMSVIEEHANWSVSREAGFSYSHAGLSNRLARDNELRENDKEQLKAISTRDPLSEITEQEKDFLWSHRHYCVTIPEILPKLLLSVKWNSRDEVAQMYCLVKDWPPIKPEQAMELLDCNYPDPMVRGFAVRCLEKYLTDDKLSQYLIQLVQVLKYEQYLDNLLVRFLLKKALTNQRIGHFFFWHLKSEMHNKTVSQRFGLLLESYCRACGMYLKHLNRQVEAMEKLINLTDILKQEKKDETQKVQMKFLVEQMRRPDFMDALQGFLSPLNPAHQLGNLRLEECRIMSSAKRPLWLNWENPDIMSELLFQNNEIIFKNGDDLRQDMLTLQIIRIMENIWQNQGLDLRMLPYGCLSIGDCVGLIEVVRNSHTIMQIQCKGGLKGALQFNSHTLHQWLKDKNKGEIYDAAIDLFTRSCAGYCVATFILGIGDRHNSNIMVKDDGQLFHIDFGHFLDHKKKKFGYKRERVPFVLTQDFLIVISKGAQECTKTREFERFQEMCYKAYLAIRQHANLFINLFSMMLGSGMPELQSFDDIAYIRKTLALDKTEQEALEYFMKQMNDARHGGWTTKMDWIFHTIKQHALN

[9] = test system: HCC1954, KPL-4, and HCI-003 PDX; assay: Efficacy in PIK3CA-mutant xenograft and PDX models; format: in vivo, mouse; settings: HCC1954, KPL-4, HCI-003 PDX; dosed orally and daily
[10] = test system: HER2-positive PIK3CA-mutant breast tumor lines (n = 6); assay: ATP cell viability, HER2-positive PIK3CA-mutant breast lines; format: cell-based; settings: HER2 amplified PIK3CA-mutant cell lines, 5 days
[11] = target: H1047R mutant p110a in HCC1954 parental cells (Homo sapiens, UniProt P42336, H1047R); settings: 24 hours, 500 nmol/L, P = 0.00016
Sequence of H1047R mutant p110a in HCC1954 parental cells (P42336 whole entry H1047R): as above
Sequence of H1047R mutant p110a in HCC1954 parental cells (O00459 whole entry partner): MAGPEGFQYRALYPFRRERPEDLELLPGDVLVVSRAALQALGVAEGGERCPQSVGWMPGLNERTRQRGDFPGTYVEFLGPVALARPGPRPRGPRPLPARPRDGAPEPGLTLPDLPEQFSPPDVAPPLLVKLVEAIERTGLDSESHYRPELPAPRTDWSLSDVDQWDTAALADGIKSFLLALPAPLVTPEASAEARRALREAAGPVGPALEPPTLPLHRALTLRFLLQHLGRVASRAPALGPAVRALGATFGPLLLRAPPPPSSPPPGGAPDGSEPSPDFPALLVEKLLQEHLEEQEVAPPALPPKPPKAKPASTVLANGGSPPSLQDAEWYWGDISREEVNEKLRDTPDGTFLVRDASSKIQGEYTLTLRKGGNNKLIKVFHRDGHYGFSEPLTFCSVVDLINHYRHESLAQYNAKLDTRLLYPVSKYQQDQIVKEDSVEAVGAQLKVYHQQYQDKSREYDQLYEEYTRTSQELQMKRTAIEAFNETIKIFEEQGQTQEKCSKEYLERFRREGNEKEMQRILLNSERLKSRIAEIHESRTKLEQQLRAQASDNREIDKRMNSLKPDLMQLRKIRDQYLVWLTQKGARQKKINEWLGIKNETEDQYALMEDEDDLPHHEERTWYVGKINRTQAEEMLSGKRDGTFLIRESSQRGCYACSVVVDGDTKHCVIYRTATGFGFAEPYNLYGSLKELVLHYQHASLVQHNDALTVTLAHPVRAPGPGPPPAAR

[12] = target: p110a protein in PIK3CA H1047R-mutant HCC1954 cells (Homo sapiens, UniProt P42336, H1047R); assay: p110a Western blot, HCC1954 cells; format: cell-based; settings: treatment up to 8 hours
Sequence of p110a protein in PIK3CA H1047R-mutant HCC1954 cells (P42336 whole entry H1047R): as the sequence (P42336 whole entry H1047R) above

[13] = target: p110a in PIK3CA-WT HDQ-P1 cells (Homo sapiens, UniProt P42336); settings: Western blot, 8 hours
Sequence of p110a in PIK3CA-WT HDQ-P1 cells (P42336 whole entry): as the sequence (P42336 whole entry H1047R) above, with R1047H counted along it
Sequence of p110a in PIK3CA-WT HDQ-P1 cells (P27986 whole entry partner): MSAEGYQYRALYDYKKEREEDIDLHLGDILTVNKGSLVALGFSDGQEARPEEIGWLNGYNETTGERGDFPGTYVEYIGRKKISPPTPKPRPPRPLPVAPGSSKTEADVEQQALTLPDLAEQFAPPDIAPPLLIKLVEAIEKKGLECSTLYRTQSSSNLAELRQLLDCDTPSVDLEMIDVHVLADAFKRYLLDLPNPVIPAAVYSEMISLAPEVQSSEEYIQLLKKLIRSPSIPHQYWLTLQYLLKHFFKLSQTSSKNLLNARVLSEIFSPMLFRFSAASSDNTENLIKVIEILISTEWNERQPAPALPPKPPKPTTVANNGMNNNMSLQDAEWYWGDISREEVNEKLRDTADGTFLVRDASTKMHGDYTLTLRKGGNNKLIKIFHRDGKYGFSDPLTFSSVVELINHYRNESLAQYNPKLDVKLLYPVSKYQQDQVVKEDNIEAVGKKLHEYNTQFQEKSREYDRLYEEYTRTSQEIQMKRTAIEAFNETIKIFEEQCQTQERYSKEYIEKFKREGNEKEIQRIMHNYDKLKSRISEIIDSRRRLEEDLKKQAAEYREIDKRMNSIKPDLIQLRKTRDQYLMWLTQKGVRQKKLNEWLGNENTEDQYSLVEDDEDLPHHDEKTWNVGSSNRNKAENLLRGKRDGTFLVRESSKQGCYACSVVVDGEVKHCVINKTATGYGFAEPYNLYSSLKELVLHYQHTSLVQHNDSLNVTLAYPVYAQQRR

For `Cc1nc(NC(=O)N2CCC[C@H]2C(N)=O)sc1-c1ccnc(C(C)(C)C(F)(F)F)c1` [Alpelisib, reference compound], the “cytotoxic effects in primary human hepatocytes” value (“cytotoxic effects” below) [1] was “no cytotoxic effects” and the “potency differential in mutant versus WT isogenic SW48 cells” value (shortened to “potency differential”) [2] was “not have a potency differential”.

For `C[C@H](Nc1ccc2c(c1)OCCn1cc(N3C(=O)OC[C@H]3C(F)F)nc1-2)C(N)=O` [GDC-0077], the “fold difference between the mean IC50 values, GDC-0077 versus BYL719” value [3] was ~6 fold, the “cytotoxic effects” value [1] was “no cytotoxic effects” and the “GDC-0077 concentrations giving negative GR values (cytotoxic response)” value [4] was ≥ 0.12 µmol/L. The “pAKT / pathway inhibition over the 24-hour treatment time” value [5] was “sustained inhibition of pAKT; also recorded: sustained pathway inhibition”, the “p110a degradation at clinically relevant concentrations” value [6] was “resulted in p110a degradation” and the “drug–drug interactions” value [7] was “No drug–drug interactions were observed”. The “p110a protein expression in HCC1954 xenograft tumors” value ([8]; single oral dose of 50 mg/kg) was “depleted p110a protein expression for up to 8 hours”, the “tumor response at the MTD in PIK3CA-mutant xenograft and PDX models” value [9] was “tumor regressions” and the “fold difference between the mean IC50 values, GDC-0077 versus BYL719” value [10] was ~20 fold. The “mutant-specific (H1047R) p110a peptide by mass spectrometry” value [11] was “loss of the mutant-specific peptide”.

With `CC(C)n1ncnc1-c1cn2c(n1)-c1ccc(O[C@@H](C)C(N)=O)cc1OCC2` [GNE-326, (S)-2-((2-(1-Isopropyl-1H-1,2,4-triazol-5-yl)-5,6-dihydrobenzo[f]imidazo[1,2-d][1,4]oxazepin-9-yl)oxy)propanamide] the “potency differential” value [2] was “not have a potency differential”.

In the case of `CS(=O)(=O)N1CCN(Cc2cc3nc(-c4cccc5[nH]ncc45)nc(N4CCOCC4)c3s2)CC1` [Pictilisib, 2-(1H-indazol-4-yl)-6-(4-methanesulfonyl-piperazin-1-ylmethyl)-4-morpholin-4-yl-thieno[3,2-d]pyrimidine], the “potency differential” value [2] is reported as “comparable EC50”.

For `Cc1nc(-c2cn3c(n2)-c2ccc(-c4cnn(C(C)(C)C(N)=O)c4)cc2OCC3)n(C(C)C)n1` [Taselisib], the “cytotoxic effects” value [1] was “no cytotoxic effects”, the “potency (EC50) increase in PIK3CA-mutant cells versus parental WT SW48 cells” value ([2]; H1047R or E545K knock-in versus parental) was 3 fold and the “p110a protein level in HCC1954 cells” value [12] was “dose-dependent depletion of p110a protein”. The “p110a degradation at clinically relevant concentrations” value [6] was “resulted in p110a degradation”, the “membrane-associated p110a in HCC1954 xenograft tumors” value ([8]; 4 hours after a single oral dose of 15 mg/kg) was “depleted” and the “p110a protein level in HDQ-P1 cells” value [13] was “No significant change”. For the same compound, the “mutant-specific (H1047R) p110a peptide by mass spectrometry” value [11] was “loss of the mutant-specific peptide”.
